This is an account of results in patent US11427526B2, “Method of preparing hydroxytyrosol cinnamic acid ester with antioxidant and antibacterial activities” (XI'AN KANGYUANSHENG BIOMEDICAL TECHNOLOGY CO., LTD., priority 2020, dated 2022).

One assay relates to carbapenem-resistant Acinetobacter baumannii CR-AB 18-183. The assay can be described thus: MIC by microbroth dilution, CR-AB 18-183. The assay is classed as cell-based. To be noted: strain CR-AB 18-183. On the procedure:
(§1) The minimal inhibitory concentrations (MIC) of the compounds were determined by microbroth dilution method with gentamicin, cefazolin sodium and ceftriaxone sodium as positive control.
(§2) The experimental strains included methicillin-resistant Gram-positive bacteria: methicillin-resistant Straphylococcus aureus MRSA 18-222, 18-575; multiple drug-resistant Gram-negative bacteria: vancomycin-resistant Enterococci VRE 18-80, 18-94, multidrug-resistant Pseudomonas aeruginosa MDR-PA 18-1774, 18-202, carbapenem-resistant Acinetobacter baumannii CR-AB 18-183, 18-560. All the experimental strains were donated by Huashan Hospital affiliated to Fudan University (Institute of antibiotics, Fudan University) and used after routine identification.
(§3) Preparation of MHB medium: 20.0 g MHB medium was added to 1 L distilled water, boiled until completely dissolved, packed in conical bottles and sterilized at 121° C. for 15 min.
(§4) The experimental strain was cultured to the logarithmic growth phase: under aseptic condition, the experimental strain was inoculated into 100 mL MHB medium and incubated in a constant temperature and humidity incubator at 37° C. for 20-22 hours.
(§5) Preparation of storage solution: weighing the sample to be tested, dissolving it with 1% DMSO solution, preparing a storage solution with a concentration of 2560 μg/mL, weighing a positive reference substance, dissolving it with aseptic distilled water, and configuring a storage solution with a concentration of 2560 μg/mL.
(§6) Preparation of bacterial suspension: under aseptic condition, the experimental strains cultured to logarithmic growth phase were adjusted to 0.5 MCF turbidity standard with MHB medium and diluted according to 1:10, and the bacterial suspension with concentration of 10^6 CFU/mL was prepared for standby.
(§7) Dilution of storage solution and inoculation of experimental strain: under aseptic condition, the storage solution was diluted to 256 μg/mL solution. Taking a sterile 96-well plate, adding 200 μL MHB medium to the 12th well, and adding 100 μL MHB medium to each well. Adding 100 μL of positive control solution to the first well, mixing well, and taking 100 μL and discard. Adding 100 μL of the compound sample solution to the second well, mixing well, and then pipetting 100 μL to the third well. After mixing, pipetting 100 μL to the fourth well, and diluting to the 11th well in the same way. Finally, 100 μL was pipetted from the 11th well and discarded. The 12th hole was the growth control without drugs. The concentration of the positive reference substance was 128 μg/mL, the concentrations of the sample solution were 128, 64, […] respectively. Then, 100 μL of the prepared bacterial suspension was added to each well, so that the final concentration of the bacterial liquid in each well was 5×10^5 CFU/mL.
(§8) Incubation: Covering the 96-well plate inoculated with the experimental strains, and incubating in a constant temperature and humidity box at 37° C. for 20-22 hours.
Take `CO/N=C(\C(=O)N[C@@H]1C(=O)N2C(C(=O)O)=C(CSc3nc(=O)c(=O)[nH]n3C)CS[C@H]12)c1csc(N)n1` [Ceftriaxone sodium]: the Minimum bacteriostatic concentration was more than 128 µg/mL.

The test system of the next assay is vancomycin-resistant Enterococci VRE 18-94. The assay can be described thus: MIC by microbroth dilution, VRE 18-94. The assay is classed as cell-based. To be noted: strain VRE 18-94. The protocol: as §1, §2, §3, §4, §5, §6, §7, §8
For the molecule `CO/N=C(\C(=O)N[C@@H]1C(=O)N2C(C(=O)O)=C(CSc3nc(=O)c(=O)[nH]n3C)CS[C@H]12)c1csc(N)n1` [Ceftriaxone sodium], the Minimum bacteriostatic concentration was more than 128 µg/mL.

A further assay deals with carbapenem-resistant Acinetobacter baumannii CR-AB 18-560. The assay can be described thus: MIC by microbroth dilution, CR-AB 18-560. The assay is classed as cell-based. Conditions: strain CR-AB 18-560. The protocol:
as §1, §2, §3, §4, §5, §6, §7, §8
For `CO/N=C(\C(=O)N[C@@H]1C(=O)N2C(C(=O)O)=C(CSc3nc(=O)c(=O)[nH]n3C)CS[C@H]12)c1csc(N)n1` [Ceftriaxone sodium], the Minimum bacteriostatic concentration is more than 128 µg/mL.

Tested on in the next assay: not listed separately
In words: DPPH radical scavenging activity assay. To be noted: 1.76 ppm, n = 3. On the procedure:
The antioxidant activity of the hydroxytyrosol cinnamic acid ester was measured by a DPPH radical scavenging activity assay. 2,2-Diphenyl-1-picryl hydrazyl (DPPH) is an organic compound composed of a stable organic radical. In the DPPH molecule, due to the presence of multiple electron-withdrawing —NO2 and large π bonds of the benzene ring, nitrogen free radical is stabilized. Its methanol solution is purple and has a maximum absorption peak at 517 nm. After the addition of an antioxidant, DPPH captures an electron to be paired with the free electron, and the purple fades and turns into a yellow substance. The absorption at 517 nm disappears, and the degree of fading is quantitatively related to the number of electrons it captures. Based on this principle, a spectrophotometer is used to detect the change of the absorbance of the DPPH radical and the sample solution, and the ability of the sample to provide hydrogen atoms and scavenge free radicals can be measured. measuring exact amount of 2,2-diphenyl-1-picryl hydrazyl (DPPH) and dissolving in toluene to prepare a 0.2 mmoL/L DPPH solution, stored at 0° C. in dark. Vc (positive control), hydroxytyrosol cinnamic acid ester (sample), hydroxytyrosol (control) and cinnamic acid (control). The sample solution was subjected to gradient dilution with toluene, and three sets of controls were separately dissolved in a test tube with a certain amount of toluene to prepare the same concentration gradient as the sample. Sample liquid absorbance measurement: Take 2 mL of sample solution (Table 1 Vc, B, C), add 2 mL of DPPH solution with concentration of 2×10^−4 moL/L, mix and react in the dark at room temperature for 30 min, adjust to zero with toluene, and measure at 517 nm. The absorbance Ai was simultaneously measured for the absorbance Aj of 2 mL of toluene mixed with 2 mL of the sample solution and the absorbance Ao of 2 mL of DPPH solution mixed with 2 mL of toluene (The experimental results are shown in Table 2). Clearance calculation: Clearance Rate (%)=[1−(Ai−Aj)/Ao]*100%
For the molecule `O=C1O[C@H]([C@@H](O)CO)C(O)=C1O` [Vc], the DPPH clearance rate was 23.16%.

The assay is the same for the next values; noted with them: 8.80 ppm, n = 3.
`O=C1O[C@H]([C@@H](O)CO)C(O)=C1O` [Vc] showed a DPPH clearance rate of 33.47%.

Staying with this assay, now noted: 21.12 ppm, n = 3.
Turning to `O=C1O[C@H]([C@@H](O)CO)C(O)=C1O` [Vc], the DPPH clearance rate stood at 79.63%.

The same assay, now with this note: 42.24 ppm, n = 3.
With `O=C1O[C@H]([C@@H](O)CO)C(O)=C1O` [Vc], the DPPH clearance rate is 89.55%.

The assay is the same for the next values; noted with them: 79.20 ppm, n = 3.
The molecule `O=C1O[C@H]([C@@H](O)CO)C(O)=C1O` [Vc] yielded a DPPH clearance rate of 97.42%.

Still in this assay, the particulars now being: 112.64 ppm, n = 3.
Molecule `O=C1O[C@H]([C@@H](O)CO)C(O)=C1O` [Vc] showed a DPPH clearance rate of 97.53%.

The same assay, now with this note: 281.60 ppm, n = 3.
As for `O=C1O[C@H]([C@@H](O)CO)C(O)=C1O` [Vc], the DPPH clearance rate was 98.29%.

The same assay, now with this note: 492.80 ppm, n = 3.
Turning to `O=C1O[C@H]([C@@H](O)CO)C(O)=C1O` [Vc], the DPPH clearance rate is 99.06%.

The assay is the same for the next values; noted with them: 792.00 ppm, n = 3.
On to `O=C1O[C@H]([C@@H](O)CO)C(O)=C1O` [Vc], for which the DPPH clearance rate was found to be 99.10%.

Still in this assay, the particulars now being: 915.20 ppm, n = 3.
In turn, `O=C1O[C@H]([C@@H](O)CO)C(O)=C1O` [Vc] displayed a DPPH clearance rate of 99.28%.

In the next assay the test system is methicillin-resistant Straphylococcus aureus MRSA 18-222. The assay can be described thus: MIC by microbroth dilution, MRSA 18-222. The assay is classed as cell-based. To be noted: strain MRSA 18-222. The protocol:
as §1, §2, §3, §4, §5, §6, §7, §8
`CO/N=C(\C(=O)N[C@@H]1C(=O)N2C(C(=O)O)=C(CSc3nc(=O)c(=O)[nH]n3C)CS[C@H]12)c1csc(N)n1` [Ceftriaxone sodium] gave a Minimum bacteriostatic concentration of more than 128 µg/mL.

The next assay relates to multidrug-resistant Pseudomonas aeruginosa MDR-PA 18-174. The assay can be described thus: MIC by microbroth dilution, MDR-PA 18-174. The assay is classed as cell-based. To be noted: strain MDR-PA 18-174. On the procedure: as §1, §2, §3, §4, §5, §6, §7, §8
`CO/N=C(\C(=O)N[C@@H]1C(=O)N2C(C(=O)O)=C(CSc3nc(=O)c(=O)[nH]n3C)CS[C@H]12)c1csc(N)n1` [Ceftriaxone sodium] registered a Minimum bacteriostatic concentration of 128 µg/mL.

For a further assay, the system named is vancomycin-resistant Enterococci VRE 18-80. The assay can be described thus: MIC by microbroth dilution, VRE 18-80. The assay is classed as cell-based. Conditions: strain VRE 18-80. On the procedure:
as §1, §2, §3, §4, §5, §6, §7, §8
The molecule `CO/N=C(\C(=O)N[C@@H]1C(=O)N2C(C(=O)O)=C(CSc3nc(=O)c(=O)[nH]n3C)CS[C@H]12)c1csc(N)n1` [Ceftriaxone sodium] gave a Minimum bacteriostatic concentration of 8 µg/mL.

The subject of a further assay is methicillin-resistant Straphylococcus aureus MRSA 18-575. The assay can be described thus: MIC by microbroth dilution, MRSA 18-575. The assay is classed as cell-based. Conditions: strain MRSA 18-575. On the procedure: as §1, §2, §3, §4, §5, §6, §7, §8
As for `CO/N=C(\C(=O)N[C@@H]1C(=O)N2C(C(=O)O)=C(CSc3nc(=O)c(=O)[nH]n3C)CS[C@H]12)c1csc(N)n1` [Ceftriaxone sodium], the Minimum bacteriostatic concentration is more than 128 µg/mL.

Another assay relates to multidrug-resistant Pseudomonas aeruginosa MDR-PA 18-202. In words: MIC by microbroth dilution, MDR-PA 18-202. The assay is classed as cell-based. To be noted: strain MDR-PA 18-202. The protocol: as §1, §2, §3, §4, §5, §6, §7, §8
`CO/N=C(\C(=O)N[C@@H]1C(=O)N2C(C(=O)O)=C(CSc3nc(=O)c(=O)[nH]n3C)CS[C@H]12)c1csc(N)n1` [Ceftriaxone sodium] gave a Minimum bacteriostatic concentration of 16 µg/mL.
